In this test the target is hMRGX2 (CHO-K1 cells overexpressing MRGX2) (Homo sapiens (Human), UniProt Q96LB1). The experiment in a line: In vitro inhibition (EC50) of intracellular calcium flux, FLIPR Tetra, substance P stimulation. The note with it: stimulated with MRGX2 ligand substance P, FLIPR Calcium 5, read-out: hMRGX2 Cellular Potency (pEC50) (converted). The class given is cell-based. The procedure:
In Vitro Inhibition (EC50) of Intracellular Calcium Flux
The release of intracellular calcium following stimulation of cells with substance P in the presence or absence of inhibitor compounds was measured using the FLIPR Tetra® system. CHO-K1 cells overexpressing MRGX2 were seeded into 384-well plates (Black clear bottom, TC-treated, Fisher #07-200-655) and incubated overnight to allow for cell attachment. Media was removed, and 1× loading buffer (FLIPR® Calcium 5 assay solution, Molecular Devices, per manufacturer specifications) was added. The plates were incubated at 37° C. for 30 minutes. Test compounds were added to cells (11-point dose response, 10 µM maximum concentration) and fluorescence measured (120 seconds, in real time) using the FLIPR Tetra® system. Immediately following, MRGX2 ligand substance P was added at a final concentration of 1 µM and fluorescence measured (120 seconds, in real time) using the FLIPR Tetra® system. The data for the examples are reported as pEC50.
On the technique in general: Calcium assays in cells follow changes in intracellular calcium, usually with a dye or a luminescent sensor.

Sequence of hMRGX2 (CHO-K1 cells overexpressing MRGX2) (Q96LB1 whole entry): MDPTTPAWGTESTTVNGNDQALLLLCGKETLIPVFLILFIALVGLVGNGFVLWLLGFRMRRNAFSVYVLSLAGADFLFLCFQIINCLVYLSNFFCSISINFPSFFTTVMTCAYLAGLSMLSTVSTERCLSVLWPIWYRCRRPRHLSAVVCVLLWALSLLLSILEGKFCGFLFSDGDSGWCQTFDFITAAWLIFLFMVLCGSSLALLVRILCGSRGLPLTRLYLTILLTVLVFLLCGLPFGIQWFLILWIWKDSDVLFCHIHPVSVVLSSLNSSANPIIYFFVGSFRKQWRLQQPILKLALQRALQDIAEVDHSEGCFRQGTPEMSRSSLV

As to `COC(C)CNC1=NS(=O)(=O)c2cccc(-c3cc(F)ccc3F)c2N1` (centres unmarked) [Example 142, 5-(2,5-difluorophenyl)-3-((2-methoxypropyl)amino)-4H-benzo[e][1,2,4]thiadiazine 1,1-dioxide], the EC50 was 244 nM.
Take `O=S1(=O)N=C(NCc2ccccc2)Nc2c(-c3cc(F)cc(F)c3)cccc21` [Example 88, 3-(benzylamino)-5-(3,5-difluorophenyl)-4H-benzo[e][1,2,4]thiadiazine 1,1-dioxide]: the EC50 is 75.2 nM.
Turning to `CO[C@H](C)CNC1=NS(=O)(=O)c2cccc(-c3cc(F)cc(F)c3)c2N1` (single isomer, unassigned) [Example 85], the EC50 is 249 nM.
As for `O=S1(=O)N=C(NCc2ccc(F)cc2)Nc2c(-c3ccnc(F)c3Cl)cccc21` [Example 54, 5-(3-chloro-2-fluoropyridin-4-yl)-3-((4-fluorobenzyl)amino)-4H-benzo[e][1,2,4]thiadiazine 1,1-dioxide], the figure is 13.2 nM; as for `CCc1ccccc1-c1cccc2c1NC(NC)=NS2(=O)=O` [Example 91, 5-(2-ethylphenyl)-3-(methylamino)-4H-benzo[e][1,2,4]thiadiazine 1,1-dioxide], 81.8 nM.
As for `O=S1(=O)N=C(NCc2ccco2)Nc2c(-c3cc(F)cc(F)c3)cccc21` [Example 164, 5-(3,5-difluorophenyl)-3-((furan-2-ylmethyl)amino)-4H-benzo[e][1,2,4]thiadiazine 1,1-dioxide], the figure is 225 nM.
The value for `CO[C@@H](C)CNC1=NS(=O)(=O)c2cccc(-c3cc(F)cc(F)c3)c2N1` (single isomer, unassigned) [Example 86] was more than 50100 nM; that for `COCCNC1=NS(=O)(=O)c2cccc(-c3cccc(F)c3C3CC3)c2N1` [Example 156, 5-(2-cyclopropyl-3-fluorophenyl)-3-((2-methoxyethyl)amino)-4H-benzo[e][1,2,4]thiadiazine 1,1-dioxide] was 47.5 nM; that for `O=S1(=O)N=C(NCc2ccccc2F)Nc2c(-c3cc(F)cc(F)c3)cccc21` [Example 77, 5-(3,5-difluorophenyl)-3-((2-fluorobenzyl)amino)-4H-benzo[e][1,2,4]thiadiazine 1,1-dioxide] was 34.9 nM.
For `N#Cc1ccccc1-c1cccc2c1NC(NCC1CCC1)=NS2(=O)=O` [Example 146, 2-(3-((cyclobutylmethyl)amino)-1,1-dioxido-4H-benzo[e][1,2,4]thiadiazin-5-yl)benzonitrile], the EC50 was 162 nM.
Regarding `CNC1=NS(=O)(=O)c2cccc(-c3cccc(F)c3C)c2N1` [Example 95, 5-(3-fluoro-2-methylphenyl)-3-(methylamino)-4H-benzo[e][1,2,4]thiadiazine 1,1-dioxide], the EC50 is 350 nM.
Regarding `COCCNC1=NS(=O)(=O)c2cc(F)cc(-c3ccccc3Cl)c2N1` [Example 14, 5-(2-chlorophenyl)-7-fluoro-3-((2-methoxyethyl)amino)-4H-benzo[e][1,2,4]thiadiazine 1,1-dioxide], the EC50 is 40.6 nM.
As for `N#Cc1c(F)cccc1-c1cccc2c1NC(NCc1ncco1)=NS2(=O)=O` [Example 161, 2-fluoro-6-(3-((oxazol-2-ylmethyl)amino)-1,1-dioxido-4H-benzo[e][1,2,4]thiadiazin-5-yl)benzonitrile], the figure is 61.5 nM; as for `COCCNC1=NS(=O)(=O)c2cccc(-c3ccc(F)cc3Cl)c2N1` [Example 133, 5-(2-chloro-4-fluorophenyl)-3-((2-methoxyethyl)amino)-4H-benzo[e][1,2,4]thiadiazine 1,1-dioxide], 296 nM.
Regarding `CNC1=NS(=O)(=O)c2cc(F)cc(-c3ccccc3Cl)c2N1` [Example 13, 5-(2-chlorophenyl)-7-fluoro-3-(methylamino)-4H-benzo[e][1,2,4]thiadiazine 1,1-dioxide], the EC50 was 35.5 nM.
The value for `N#Cc1cnc(CNC2=NS(=O)(=O)c3cccc(-c4ccnc(F)c4Cl)c3N2)s1` [Example 55, 2-(((5-(3-chloro-2-fluoropyridin-4-yl)-1,1-dioxido-4H-benzo[e][1,2,4]thiadiazin-3-yl)amino)methyl)thiazole-5-carbonitrile] was 136 nM; that for `COC(C)CNC1=NS(=O)(=O)c2cccc(-c3cn(C)nc3C)c2N1` (centres unmarked) [Example 60, 5-(1,3-dimethyl-1H-pyrazol-4-yl)-3-((2-methoxypropyl)amino)-4H-benzo[e][1,2,4]thiadiazine 1,1-dioxide] was 865 nM; that for `O=S1(=O)N=C(NCc2ccc(F)cc2)Nc2c(-c3cc(F)cc(F)c3)cccc21` [Example 75, 5-(3,5-difluorophenyl)-3-((4-fluorobenzyl)amino)-4H-benzo[e][1,2,4]thiadiazine 1,1-dioxide] was 34.6 nM.
The value for `COCCNC1=NS(=O)(=O)c2cccc(-c3cc(F)cc(F)c3Cl)c2N1` [Example 32, 5-(2-chloro-3,5-difluorophenyl)-3-((2-methoxyethyl)amino)-4H-benzo[e][1,2,4]thiadiazine 1,1-dioxide] was 35.7 nM.
As for `O=S1(=O)N=C(NCC2CCCO2)Nc2c(-c3cccc(F)c3Cl)cccc21` (centres unmarked) [Example 123, 5-(2-chloro-3-fluorophenyl)-3-(((tetrahydrofuran-2-yl)methyl)amino)-4H-benzo[e][1,2,4]thiadiazine 1,1-dioxide], the figure is 60.8 nM.
On to `O=S1(=O)N=C(NCCOCC(F)F)Nc2c(-c3cccc(F)c3Cl)cccc21` [Example 160, 5-(2-chloro-3-fluorophenyl)-3-((2-(2,2-difluoroethoxy)ethyl)amino)-4H-benzo[e][1,2,4]thiadiazine 1,1-dioxide], for which the EC50 is 93.3 nM.
The value for `Cc1n[nH]cc1-c1cccc2c1NC(Nc1ccc(C(C)C)cc1)=NS2(=O)=O` [Example 106, 3-((4-isopropylphenyl)amino)-5-(3-methyl-1H-pyrazol-4-yl)-4H-benzo[e][1,2,4]thiadiazine 1,1-dioxide] was 70.1 nM; that for `O=S1(=O)N=C(NCc2ccncc2)Nc2c(-c3cc(F)cc(F)c3)cccc21` [Example 82, 5-(3,5-difluorophenyl)-3-((pyridin-4-ylmethyl)amino)-4H-benzo[e][1,2,4]thiadiazine 1,1-dioxide] was 1010 nM.
The value for `Cc1nn(C)cc1-c1cccc2c1NC(Nc1cccc(C(C)C)c1)=NS2(=O)=O` [Example 115, 5-(1,3-dimethyl-1H-pyrazol-4-yl)-3-((3-isopropylphenyl)amino)-4H-benzo[e][1,2,4]thiadiazine 1,1-dioxide] was 54.8 nM; that for `COc1cccc(CNC2=NS(=O)(=O)c3cccc(-c4cccc(F)c4Cl)c3N2)n1` [Example 18, 5-(2-chloro-3-fluorophenyl)-3-(((6-methoxypyridin-2-yl)methyl)amino)-4H-benzo[e][1,2,4]thiadiazine 1,1-dioxide] was 21.3 nM.
The value for `CC(C)c1ccc(NC2=NS(=O)(=O)c3cccc(C4CC4)c3N2)cn1` [Example 118, 5-cyclopropyl-3-((6-isopropylpyridin-3-yl)amino)-4H-benzo[e][1,2,4]thiadiazine 1,1-dioxide] was 378 nM; that for `O=S1(=O)N=C(NCc2c(F)cccc2F)Nc2c(-c3cc(F)cc(F)c3)cccc21` [Example 78, 3-((2,6-difluorobenzyl)amino)-5-(3,5-difluorophenyl)-4H-benzo[e][1,2,4]thiadiazine 1,1-dioxide] was 224 nM.
With `COc1ccccc1CCNC1=NS(=O)(=O)c2cccc(-c3cccc(F)c3Cl)c2N1` [Example 71, 5-(2-chloro-3-fluorophenyl)-3-((2-methoxyphenethyl)amino)-4H-benzo[e][1,2,4]thiadiazine 1,1-dioxide], the EC50 was 82.8 nM.
The value for `O=S1(=O)N=C(NCC2CC2)Nc2c(-c3cccc(F)c3Cl)cccc21` [Example 29, 5-(2-chloro-3-fluorophenyl)-3-((cyclopropylmethyl)amino)-4H-benzo[e][1,2,4]thiadiazine 1,1-dioxide] was 26.8 nM.
As for `COC(C)CNC1=NS(=O)(=O)c2cccc(-c3cccc(F)c3F)c2N1` (racemic) [Example 23, 5-(2,3-difluorophenyl)-3-((2-methoxypropyl)amino)-4H-benzo[e][1,2,4]thiadiazine 1,1-dioxide], the figure is 41.1 nM.
The value for `CO[C@@H](C)CNC1=NS(=O)(=O)c2cccc(-c3cc(F)cc(F)c3F)c2N1` (single isomer, unassigned) [Example 128] was 24.9 nM; that for `CCC(CNC1=NS(=O)(=O)c2cccc(-c3cc(F)cc(F)c3)c2N1)OC` (centres unmarked) [Example 87, 5-(3,5-difluorophenyl)-3-((2-methoxybutyl)amino)-4H-benzo[e][1,2,4]thiadiazine 1,1-dioxide] was 240 nM.
On to `COCCNC1=NS(=O)(=O)c2cccc(-c3cccc(C(F)(F)F)c3Cl)c2N1` [Example 132, 5-(2-chloro-3-(trifluoromethyl)phenyl)-3-((2-methoxyethyl)amino)-4H-benzo[e][1,2,4]thiadiazine 1,1-dioxide], for which the EC50 is 281 nM.
The value for `CC(C)c1ccc(NC2=NS(=O)(=O)c3cccc(-c4ccccc4Cl)c3N2)cc1` [Example 112, 5-(2-chlorophenyl)-3-((4-isopropylphenyl)amino)-4H-benzo[e][1,2,4]thiadiazine 1,1-dioxide] was 165 nM; that for `O=S1(=O)N=C(NCC2CC2)Nc2c(-c3ccnc(F)c3Cl)cccc21` [Example 50, 5-(3-chloro-2-fluoropyridin-4-yl)-3-((cyclopropylmethyl)amino)-4H-benzo[e][1,2,4]thiadiazine 1,1-dioxide] was 70.8 nM.

For the origin of these results see patent US12247015B2, “3-amino-4H-benzo[e][1,2,4]thiadiazine 1,1-dioxide derivatives as inhibitors of MRGX2” (Solent Therapeutics, LLC, priority 2019, dated 2025).
